Reference: patent publication US20120129152A1, “Diagnostic method for the prediction of the development of and control over the effectiveness of treatment of cardiovascular illnesses” (priority 2010, published 2012)

How the values were obtained:
Assay type in all cases: in vivo, human
[1] = Blood serum lipid complex (lipidogram) of treated patients
[2] = Electrocardiogram indices of treated patient; details: Example 1, after Valacyclovir with Nitrosorbidum and Corinfar
[3] = system: HSV-1; assay: IIF of patients' blood immunocytes: cells infected with herpes type 1 virus
Text: […]

[4] = Free-radical acidization of lipids, serum indicators of treated patient; details: Example 1, after Valacyclovir with Nitrosorbidum and Corinfar
[5] = system: Epstein-Barr virus; assay: IIF of patients' blood immunocytes: cells infected with Epstein-Barr virus
Protocol: (§1) The task set is addressed through a diagnostic method for the prediction of the development and control of the effectiveness of the treatment of cardiovascular, in which patient tissue samples are taken (immunocytes and erythrocytes from venous and capillary blood, smears and prints from atherosclerotic plaques after surgical intervention, and cells from urinary and salivary sediment), microdrugs are prepared, specific anti-viral immunoglobulins are processed (for types 1 and 2 herpes viruses, the cytomegalovirus, the herpes Zoster virus, the Epstein-Barr virus, the herpes 6 virus, or the combinations thereof), the number of cells infected by two or more viruses before the beginning of treatment, during treatment, and after treatment are determined with the application of anti-viral therapy, and the dynamic of the change in the number of infected cells and their interrelationships are established: if the number of cells infected by two or more viruses, among which cytomegalovirus must be found, exceeds 50±10% in patients with cardiovascular disease, a diagnostic conclusion of the threat of atherosclerosis complications such as myocardial infarction and stroke, as well as of complications such as arrhythmia, thrombic embolisms, severe left ventricular failure, repeated myocardial infarction, cardiogenic shock, and a high possibility of a fatal result; the method can also be used in patients with cardiovascular diseases after treatment through a method of a combination of traditional methods and the use of anti-viral drugs and a change is seen in the percentage of infected cells after treatment if the number of cells infected by two or more viruses decreases by more than 20±10% in repeat diagnostics, the treatment is considered successful, whereas if a decrease by 20±10% in the number of cells infected by cytomegalovirus and any other aforementioned virus in repeat diagnostics is not seen, a conclusion is drawn on the ineffectiveness of the therapy applied in that period and the need to change the antiviral therapy scheme.

[6] = Hemodynamic indicators (tetrapolar rheography) of treated patient; details: Example 1, after Valacyclovir with Nitrosorbidum and Corinfar
[7] = system: cytomegalovirus; assay: IIF of patients' blood immunocytes: cells infected with cytomegalovirus
Protocol: as §1

[8] = Clinical condition of treated patient with ischemic heart disease
[9] = Example 2, after Valacyclovir 3 courses of 7 days, before 50% of cells infected

CCC(C)(C)C(=O)O[C@H]1C[C@@H](C)C=C2C=C[C@H](C)[C@H](CC[C@@H]3C[C@@H](O)CC(=O)O3)[C@H]21 [simvastatin]
total cholesterol ([1]; Example 2, patient two, after six months of simvastatin 10 mg/day (with metoprolol, enalapril, aspirin), goal indicator 5.0 mmoles/l): 4.9 mmoles/1
triglycerides ([1]; Example 2, after six months of simvastatin 10 mg/day): 1.55 mmol/L
total cholesterol ([1]; Example 3, patient, after five months of simvastatin 10 mg/day (with metoprolol, aspirin), goal indicator 5.0 mmoles/l): 5.6 mmoles/1
triglycerides ([1]; Example 3, after five months of simvastatin 10 mg/day): 2.55 mmol/L
total cholesterol ([1]; Example 4, patient one, after six months of Zocor 20 mg/day (with Corvitol, Renitec, aspirin), goal indicator 4.0 mmoles/l): 3.9 mmoles/1
triglycerides ([1]; Example 4, after six months of Zocor 20 mg/day): 1.4 mmol/L

CC(C)[C@H](N)C(=O)OCCOCn1cnc2c(=O)[nH]c(N)nc21 [Valacyclovir]
total cholesterol in blood serum ([1]; Example 1, patient one, after Valacyclovir 1.0 g three times a day with Nitrosorbidum and Corinfar, before 6.71): 3.26 mmol/L
cholesterol/HDL ([1]; Example 1, after Valacyclovir with Nitrosorbidum and Corinfar, before 1.17): 1.20 mmol/L
LDL ([1]; Example 1, after Valacyclovir with Nitrosorbidum and Corinfar, before 1.55): 0.47 mmol/L
triglycerides in blood serum ([1]; Example 1, after Valacyclovir with Nitrosorbidum and Corinfar, before 3.4): 1.04 mmol/L
cholesterol/LDL ([1]; Example 1, after Valacyclovir with Nitrosorbidum and Corinfar, before 3.99): 3.68 mmol/L
atherogenesis index ([1]; Example 1, after Valacyclovir with Nitrosorbidum and Corinfar, before 4.74): 3.38
b-lipoproteins in blood serum ([1]; Example 1, after Valacyclovir with Nitrosorbidum and Corinfar, before 770): 310 conditional units
triglycerides ([1]; Example 2, after Valacyclovir 1.0 g 3×/day for 3 courses of 7 days, before 1.55): 1.3 mmol/L
total cholesterol ([1]; Example 2, after Valacyclovir 1.0 g 3×/day for 3 courses of 7 days, before 4.9): 4.7 mmoles/1
total cholesterol ([1]; Example 3, after Valacyclovir 1 g 3×/day for 5 courses of 7 days with 7-day intervals, before 5.6): 4.9 mmol/L
triglycerides ([1]; Example 3, after Valacyclovir 1 g 3×/day for 5 courses of 7 days, before 2.55): 1.95 mmol/L
triglycerides ([1]; Example 4, after combination therapy Valacyclovir with immunoglobulin and Laferobion, before 1.4): 1.3 mmoles/1
total cholesterol ([1]; Example 4, after combination therapy: Valacyclovir 1.0 g 3 times a day, three courses of seven days, with immunoglobulin and Laferobion, before 3.9): 1.5 mmoles/1
NST on the electrocardiogram ([2]; before 10.0): 0
SST on the electrocardiogram ([2]; before 11.0): 0
T index on the electrocardiogram ([2]; before 35.0): 0
immunocytes infected with HSV-1 (IIF) ([3]; Example 3, after Valacyclovir 5 courses of 7 days, before 70% of cells infected): 30%
herpes type 1 virus antigens in immunocytes, repeat IIF study ([3]; Example 4, two months after combination therapy Valacyclovir with immunoglobulin and Laferobion, before 60% of cells infected): did not discover antigens
triethynoid conjugates ([4]; before 0.23): 0.14 mcmol/ml
serum malondialdehyde ([4]; before 0.50): 0.31 mcmol/ml
diethynoid conjugates ([4]; before 1.332): 0.70 mcmol/ml
a-tocopherol content ([4]; before 2.69): 4.32 mcmol/ml
glutathione reductase activity ([4]; before 12.4): 22.0 mcmol/l h
blood immunocytes infected with EBV (IIF) ([5]; Example 1, after Valacyclovir with Nitrosorbidum and Corinfar, before 70% of cells infected): 50%
blood immunocytes infected with EBV (IIF) [5, 9]: 10%
Epstein-Barr virus antigens in immunocytes, repeat IIF study ([5]; Example 4, two months after combination therapy Valacyclovir with immunoglobulin and Laferobion, before 50% of cells infected): did not discover antigens
capacity of the left ventricle ([6]; before 2.02): 2.29 W
energy loss ([6]; before 15.96): 10.37 conditional units
specific peripheral resistance ([6]; before 74.53): 65.97 conditional units
flow rate ([6]; before 126.5): 169.71 mL/s
total peripheral vascular resistance ([6]; before 2917.9): 2673.6 dyn s cm^−5
blood immunocytes infected with CMV (IIF) ([7]; Example 1, after Valacyclovir with Nitrosorbidum and Corinfar, before 60% of cells infected): 20%
CMV in the blood immunocytes (IIF) [7, 9]: not present
immunocytes infected with cytomegalovirus (IIF) ([7]; Example 3, after Valacyclovir 5 courses of 7 days, before 50% of cells infected): 10%
cytomegalovirus antigens in immunocytes, repeat IIF study ([7]; Example 4, two months after combination therapy Valacyclovir with immunoglobulin and Laferobion, before 30% of cells infected): did not discover antigens
patient's condition ([8]; Example 1, within seven weeks, Valacyclovir with Nitrosorbidum and Corinfar): improved significantly
angina pain and shortness of breath ([8]; Example 1, within seven weeks, Valacyclovir with Nitrosorbidum and Corinfar, nitroglycerine tablets not used): not present
lipidogram, peroxide acidization of lipids, electrocardiography and tetrapolar rheography indicators ([8]; summary of the examples, standard treatment scheme combined with Valacyclovir): normalized
